Results from patent US11572590B2, “Methods for evaluating tumor cell spheroids using 3D microfluidic cell culture device” (Dana-Farber Cancer Institute, Inc., priority 2017, dated 2023).
Like-named read-outs stand apart in the source and are kept apart here.

Columns and labels:
Experiment in all cases: SelectScreen Kinase Profiling, single point inhibition and IC50 for off-target kinases
Format in all cases: biochemical
[1] = target: off-target kinases (Homo sapiens, UniProt P00519, H396P); details: ABL1 H396P, LanthaScreen Binding
[2] = target: T1, off-target kinases (Homo sapiens, UniProt P33981); details: TTK, LanthaScreen Binding
T1 sequence (P33981 1-857): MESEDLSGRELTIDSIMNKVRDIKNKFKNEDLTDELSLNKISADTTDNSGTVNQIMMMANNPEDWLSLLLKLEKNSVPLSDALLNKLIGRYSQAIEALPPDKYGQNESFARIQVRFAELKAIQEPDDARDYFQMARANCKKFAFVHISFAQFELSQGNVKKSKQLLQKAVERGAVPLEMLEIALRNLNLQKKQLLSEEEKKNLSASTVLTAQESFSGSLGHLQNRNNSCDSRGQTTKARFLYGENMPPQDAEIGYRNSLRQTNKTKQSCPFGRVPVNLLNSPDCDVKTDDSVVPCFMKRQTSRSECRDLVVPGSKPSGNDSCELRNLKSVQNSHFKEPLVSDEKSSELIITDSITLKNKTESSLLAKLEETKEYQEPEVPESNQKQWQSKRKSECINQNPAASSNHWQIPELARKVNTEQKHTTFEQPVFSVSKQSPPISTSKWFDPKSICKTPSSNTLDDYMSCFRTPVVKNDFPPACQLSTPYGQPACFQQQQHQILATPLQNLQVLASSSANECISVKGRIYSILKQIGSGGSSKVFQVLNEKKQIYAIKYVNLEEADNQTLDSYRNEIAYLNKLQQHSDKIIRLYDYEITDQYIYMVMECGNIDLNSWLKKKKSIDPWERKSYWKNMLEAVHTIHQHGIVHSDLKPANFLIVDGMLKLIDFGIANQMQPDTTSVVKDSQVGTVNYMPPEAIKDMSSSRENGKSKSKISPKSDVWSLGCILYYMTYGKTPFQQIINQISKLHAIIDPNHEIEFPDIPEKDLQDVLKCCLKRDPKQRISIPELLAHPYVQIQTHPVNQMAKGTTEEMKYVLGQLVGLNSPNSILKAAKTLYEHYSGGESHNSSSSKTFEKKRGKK

[3] = target: T2, off-target kinases (Homo sapiens, UniProt P42680); details: TEC, LanthaScreen Binding
T2 sequence (P42680 1-631): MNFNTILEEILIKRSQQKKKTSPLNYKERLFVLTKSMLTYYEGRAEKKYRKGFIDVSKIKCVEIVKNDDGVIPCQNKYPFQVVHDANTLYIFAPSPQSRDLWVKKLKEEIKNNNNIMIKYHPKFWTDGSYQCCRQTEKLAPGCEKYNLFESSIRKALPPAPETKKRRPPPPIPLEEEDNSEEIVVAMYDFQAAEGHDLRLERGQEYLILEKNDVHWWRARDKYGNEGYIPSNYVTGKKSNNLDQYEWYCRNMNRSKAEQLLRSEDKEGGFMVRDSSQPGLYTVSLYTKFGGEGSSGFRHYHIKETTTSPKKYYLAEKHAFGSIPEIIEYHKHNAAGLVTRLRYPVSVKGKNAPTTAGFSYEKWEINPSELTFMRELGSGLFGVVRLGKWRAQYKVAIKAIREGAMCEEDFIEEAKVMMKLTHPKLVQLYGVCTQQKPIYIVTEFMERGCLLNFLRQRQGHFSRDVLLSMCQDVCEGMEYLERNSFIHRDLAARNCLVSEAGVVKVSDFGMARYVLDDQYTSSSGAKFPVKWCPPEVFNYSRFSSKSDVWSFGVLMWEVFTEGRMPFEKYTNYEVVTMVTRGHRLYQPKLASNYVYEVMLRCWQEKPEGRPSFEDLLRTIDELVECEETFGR

[4] = target: off-target kinases (Homo sapiens, UniProt Q04912); details: MST1R (RON), ZLYTE, ATP Km app
Chain of off-target kinases (Homo sapiens, UniProt Q04912) (Q04912 25-1400): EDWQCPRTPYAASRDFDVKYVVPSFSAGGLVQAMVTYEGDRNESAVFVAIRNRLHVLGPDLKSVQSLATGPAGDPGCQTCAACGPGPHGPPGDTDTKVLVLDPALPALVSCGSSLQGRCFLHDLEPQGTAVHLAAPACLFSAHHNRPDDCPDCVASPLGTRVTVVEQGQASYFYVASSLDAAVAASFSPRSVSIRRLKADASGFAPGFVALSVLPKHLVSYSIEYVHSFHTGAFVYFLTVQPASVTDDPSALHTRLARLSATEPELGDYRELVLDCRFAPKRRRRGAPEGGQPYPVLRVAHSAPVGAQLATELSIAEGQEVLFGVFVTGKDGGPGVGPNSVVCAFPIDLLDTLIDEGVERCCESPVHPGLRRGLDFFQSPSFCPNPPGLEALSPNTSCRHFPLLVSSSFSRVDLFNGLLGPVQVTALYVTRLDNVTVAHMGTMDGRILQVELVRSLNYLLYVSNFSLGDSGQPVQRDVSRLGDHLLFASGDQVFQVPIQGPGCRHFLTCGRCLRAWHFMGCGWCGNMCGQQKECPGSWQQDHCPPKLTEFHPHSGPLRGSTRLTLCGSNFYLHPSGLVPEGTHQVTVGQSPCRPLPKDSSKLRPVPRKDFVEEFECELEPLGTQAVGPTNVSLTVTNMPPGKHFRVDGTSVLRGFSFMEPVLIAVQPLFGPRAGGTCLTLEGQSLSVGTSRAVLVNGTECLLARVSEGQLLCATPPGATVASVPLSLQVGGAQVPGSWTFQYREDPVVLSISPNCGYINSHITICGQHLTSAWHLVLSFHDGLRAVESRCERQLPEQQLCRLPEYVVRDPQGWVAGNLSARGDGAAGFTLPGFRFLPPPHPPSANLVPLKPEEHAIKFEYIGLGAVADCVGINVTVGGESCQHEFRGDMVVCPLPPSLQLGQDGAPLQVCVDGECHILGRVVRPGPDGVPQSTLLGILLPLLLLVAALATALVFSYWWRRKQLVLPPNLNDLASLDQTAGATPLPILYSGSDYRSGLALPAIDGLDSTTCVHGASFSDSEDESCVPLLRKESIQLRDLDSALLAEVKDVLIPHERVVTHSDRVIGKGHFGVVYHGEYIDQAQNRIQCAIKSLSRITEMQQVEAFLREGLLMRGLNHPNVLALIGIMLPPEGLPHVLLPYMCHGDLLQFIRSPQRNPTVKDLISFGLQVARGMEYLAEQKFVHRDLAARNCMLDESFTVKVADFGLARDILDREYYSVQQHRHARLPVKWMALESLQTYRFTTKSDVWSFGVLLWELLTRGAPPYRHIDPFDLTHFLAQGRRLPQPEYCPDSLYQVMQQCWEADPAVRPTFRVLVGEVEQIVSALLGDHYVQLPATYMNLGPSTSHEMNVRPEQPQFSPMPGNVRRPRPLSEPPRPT

[5] = target: off-target kinases (Homo sapiens, UniProt Q9Y4K4); details: MAP4K5 (KHS1), ZLYTE, ATP Km app
Chain of off-target kinases (Homo sapiens, UniProt Q9Y4K4) (Q9Y4K4 whole entry): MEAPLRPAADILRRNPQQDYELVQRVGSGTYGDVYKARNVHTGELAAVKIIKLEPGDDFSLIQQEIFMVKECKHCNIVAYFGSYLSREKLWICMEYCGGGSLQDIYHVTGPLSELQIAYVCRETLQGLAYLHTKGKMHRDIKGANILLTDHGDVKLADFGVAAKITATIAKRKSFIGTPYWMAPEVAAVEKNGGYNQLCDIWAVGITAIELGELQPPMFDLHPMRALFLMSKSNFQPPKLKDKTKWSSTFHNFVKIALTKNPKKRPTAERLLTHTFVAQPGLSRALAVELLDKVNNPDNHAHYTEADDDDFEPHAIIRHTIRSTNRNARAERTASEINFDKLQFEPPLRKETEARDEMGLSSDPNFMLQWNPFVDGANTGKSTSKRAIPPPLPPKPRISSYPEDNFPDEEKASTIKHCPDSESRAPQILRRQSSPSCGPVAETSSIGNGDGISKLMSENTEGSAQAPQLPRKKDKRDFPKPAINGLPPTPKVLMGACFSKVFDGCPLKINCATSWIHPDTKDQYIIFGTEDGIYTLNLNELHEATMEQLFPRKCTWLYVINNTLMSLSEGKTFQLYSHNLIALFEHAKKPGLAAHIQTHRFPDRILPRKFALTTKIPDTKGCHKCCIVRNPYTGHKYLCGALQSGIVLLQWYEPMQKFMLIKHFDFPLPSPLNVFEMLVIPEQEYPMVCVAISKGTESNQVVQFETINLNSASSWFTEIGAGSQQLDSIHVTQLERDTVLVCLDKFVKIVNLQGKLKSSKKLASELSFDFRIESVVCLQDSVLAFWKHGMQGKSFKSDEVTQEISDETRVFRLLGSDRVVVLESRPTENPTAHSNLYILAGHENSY

`N#Cc1cc(-c2ncnc(Nc3ccc(N4CCN(C5COC5)CC4)cc3)n2)ccc1OC1CCOCC1` [Compound 1, 5-(4-((4-(4-(oxetan-3-yl)piperazin-1-yl)phenyl)amino)-1,3,5-triazin-2-yl)-2-((tetrahydro-2H-pyran-4-yl)oxy)benzonitrile] gave an inhibition ([1]; read-out: % Inhibition 1) of 58%, an inhibition ([1]; read-out: % Inhibition 2) of 60% and an inhibition ([1]; read-out: % Inhibition Avg) of 59%. For the same molecule, the inhibition ([2]; read-out: % Inhibition 1) was 33%, the inhibition ([2]; read-out: % Inhibition 2) was 34% and the inhibition ([2]; read-out: % Inhibition Avg) was 33%. It also gave an inhibition ([3]; read-out: % Inhibition 1) of 0%, an inhibition ([3]; read-out: % Inhibition 2) of 2% and an inhibition ([3]; read-out: % Inhibition Avg) of 1%. For the same molecule, the inhibition ([4]; read-out: % Inhibition 1) was 38%, the inhibition ([4]; read-out: % Inhibition 2) was 38% and the inhibition ([4]; read-out: % Inhibition Avg) was 38%. For the same molecule, the inhibition ([5]; read-out: % Inhibition 1) was 11%, the inhibition ([5]; read-out: % Inhibition 2) was 12% and the inhibition ([5]; read-out: % Inhibition Avg) was 12%.
